In general, inhibition refers to the relative decrease from the control value, in per cent.

Molecules are shown by their SMILES. Active and inactive are the calls of the source. How the calls were made is not given here.

For this experiment, the target named is Kappa-type opioid receptor (Homo sapiens) (UniProt P41145). The experiment can be described thus: kappa opioid receptor blockers, retest – cell-based, fluorescence, confirmation (AID 652082). The following applies: OPRK1 cell line, fluorescence antagonist read-out; at 9 µM; active compounds read high.
Kappa-type opioid receptor (Homo sapiens), sequence (P41145 whole entry, looked up): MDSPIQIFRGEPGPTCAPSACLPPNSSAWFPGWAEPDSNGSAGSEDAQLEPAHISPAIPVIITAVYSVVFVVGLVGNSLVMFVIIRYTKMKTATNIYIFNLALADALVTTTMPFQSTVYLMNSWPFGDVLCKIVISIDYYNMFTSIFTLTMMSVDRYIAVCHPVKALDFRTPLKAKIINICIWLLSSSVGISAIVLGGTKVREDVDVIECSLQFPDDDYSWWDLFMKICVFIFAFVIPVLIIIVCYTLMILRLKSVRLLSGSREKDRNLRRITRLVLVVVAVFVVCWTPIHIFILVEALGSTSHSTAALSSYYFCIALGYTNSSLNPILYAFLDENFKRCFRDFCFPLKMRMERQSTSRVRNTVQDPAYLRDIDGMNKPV
Regarding `CCOC(=O)C1CCN(Cc2cccc(NC(=O)c3cccs3)c2)CC1`, the inhibition is 0.7% (inactive). The same measure for `O=[N+]([O-])c1ccc(N/N=C/c2ccc(-c3cccs3)s2)nc1`: 71.3%; for `COC(=O)c1ccc(/C=C2\C(=O)Nc3ccccc32)n1-c1ccc(F)cc1`: 12% (inactive); for `CN(C)c1ccc(-n2nnnc2SCc2ccc(Cl)cc2)cc1`: 26% (inactive). The same measure for `COC(=O)c1cc(-c2ccc(OC)cc2)c(-c2ccc(OC)cc2)s1`: 68.6%. In the case of `CC(CCC(C)OC(=O)c1ccccc1C(=O)O)OC(=O)c1ccccc1C(=O)O` (stereo unspecified) it was 7.76% (inactive); in that of `Cn1c(=O)c2cc3cc(Cl)ccc3nc2c2c(=O)n(-c3ccccc3)c(=O)n(-c3ccccc3)c21`, 58.9%; in that of `CSc1ccc(/C=C/c2onc(C)c2[N+](=O)[O-])s1`, 23% (inactive). As for `COc1cccc(C(=O)c2sc3nsc(SCc4ccc(F)cc4)c3c2N)c1`, the inhibition is 2.74% (inactive).

Turning to `Nc1c(C(=O)N/N=C/c2ccc3c(c2)OCO3)sc2nnc(-c3ccccc3)c(-c3ccccc3)c12`, the inhibition was 77.2%.

For `COc1ccccc1NC(=O)NCCN1CCN(Cc2ccccc2)CC1`, the inhibition was 59.6%. For `CCOC(=O)[C@@H](N)CCSC`, the inhibition is -3.43% (inactive).

Take `COc1ccc([N+](=O)[O-])c(S(=O)(=O)c2ccc(Cl)cc2)n1`: the inhibition is 18.1% (inactive). The same measure for `Nc1c(C(=O)c2ccccc2)sc2nsc(SCCN3CCCC3)c12`: 43.2% (inactive); for `CC(=O)c1sc2nc(-c3cccs3)cc(C(F)(F)F)c2c1N`: 11.3% (inactive). Consider `O=[N+]([O-])c1ccc(N2CCc3ccccc32)cc1`, for which the inhibition is 17.4% (inactive).

As to `C#Cc1cccc(NC(=O)c2sc3nc4c(c(-c5cccs5)c3c2N)CCCC4)c1`, the inhibition was 31.7% (inactive).

Regarding `O=C(/C=C/c1cc(-c2ccccc2)c(C(F)(F)F)s1)c1cccs1`, the inhibition was 20.3% (inactive). In the case of `Oc1c(Cl)cc(Cl)cc1C1Nc2cc(Cl)c(C(F)(F)F)cc2N1` (stereo unspecified) it was 58.8%.

Consider `O=C(Nc1ccc([N+](=O)[O-])cc1)Nc1csc(-c2cccnc2)n1`, for which the inhibition is -2.3% (inactive). With `O=[N+]([O-])c1ccc(-c2ccc(/C=N/Nc3ccccc3)o2)cc1`, the inhibition was 82.8%. Regarding `Cc1ccc(/C=c2\sc3nc4ccccc4n3c2=O)o1`, the inhibition is 5.32% (inactive).

`CSc1sc(C(=O)NC(=O)Nc2ccc(Cl)cc2)c2c1-c1nocc1CC2`: the inhibition is 15.4% (inactive).

Consider `C=CCn1c(-c2sc3nnc(-c4ccccc4)c(-c4ccccc4)c3c2N)n[nH]c1=S`, for which the inhibition was 30.5% (inactive). In the case of `CCCCNc1ccc2c3c(cccc13)C(=O)N(CCCC)C2=O` it was 76.8%. In the case of `CS(=O)(=O)/C(C#N)=C\c1ccc(Cl)s1`, the inhibition was 4.17% (inactive). In the case of `O=[N+]([O-])c1ccc(N/N=C2\CCOc3ccc(F)cc32)cc1` it was 25.4% (inactive); in that of `O=C(N/C(=C\c1ccc(-c2ccc([N+](=O)[O-])cc2)o1)c1nc2ccccc2[nH]1)c1ccccc1`, 58.7%; in that of `COc1cc([N+](=O)[O-])c(OC)cc1SCc1n[nH]c(=S)n1-c1ccc(C)cc1`, 73.3%. In the case of `CC1COC(c2cccc([N+](=O)[O-])c2)N1` (stereo unspecified) it was -9.85% (inactive); in that of `N#Cc1cccc(C#N)c1Oc1ccc(N)cc1`, -6.85% (inactive); in that of `O=C1c2ccc(Cl)c3c(N4CCSCC4)ccc(c23)C(=O)N1c1ccccc1`, 9.35% (inactive).

On to `CCCCCC[n+]1ccccc1/C=C/c1ccc(N(C)C)cc1`, for which the inhibition is 79.5%. The same measure for `CN(C)c1cccc2c1c(NC(=O)Nc1ccc(OCc3ccccc3)cc1)nn2C`: 58.2%; for `CC(=O)Nc1onc(C)c1-c1nc(-c2ccc(Cl)cc2Cl)cs1`: -1.54% (inactive); for `N#Cc1cccnc1NNC(=O)COCC(=O)O`: 62.5%. Regarding `Brc1ccc(-c2csc(Nc3ccncc3)n2)cc1`, the inhibition is 34.9% (inactive). For the compound `O=[N+]([O-])c1ccc(-c2ccc(/C=N/NC(=S)Nc3cccc(F)c3)o2)cc1`, the inhibition is 60.3%.

Consider `Clc1ccc2nc3c(nc2c1)Nc1ccccc1S3`, for which the inhibition was 80.7%.

In the case of `COC(=O)/C=C1\SC(=Nc2ccc(Cl)cc2)N(c2ccc(Cl)cc2)C1=O`, the inhibition was 57.8%. The same measure for `C=CCNC(=S)NNC(=O)c1oc2nc(-c3ccc(Cl)cc3)cc(-c3ccccc3)c2c1N`: 11.6% (inactive); for `O=c1c2cc(-c3ccccc3)sc2nnn1/N=C/c1cccs1`: 3.84% (inactive). In the case of `c1ccc(-c2cc3ncnc(NCc4ccc5c(c4)OCO5)c3s2)cc1`, the inhibition was -5.98% (inactive).

With `COc1cccc(/C=C(\C#N)c2ccc([N+](=O)[O-])cc2)c1OC`, the inhibition is 34.5% (inactive). For the compound `COc1ccccc1C1CCN(Cc2ccc3c(c2)CCC(C)(C)O3)CC1`, the inhibition was 59.5%.

On to `CCCCCCCCCCCC(=O)ON1C(=O)CCC1=O`, for which the inhibition was 36.2% (inactive). In the case of `CC(=O)N1CCC(C(=O)O/N=C(\N)c2ccc(Cl)cc2)CC1` it was -11.1% (inactive); in that of `O=C(Nc1ccc(F)c(Cl)c1)c1cc(Br)ccc1O`, 62.9%; in that of `COC(=O)c1cnn(-c2ccc(Cl)cc2)c1C=C(C#N)C#N`, 3.67% (inactive). In the case of `NC(=NC(=O)c1cccc(C(F)(F)F)c1)c1ccc(C(F)(F)F)cn1` it was 41.2% (inactive). The same measure for `O=C(NNC(=O)C(F)(F)F)c1ccc[nH]1`: 9.13% (inactive).

`O=[N+]([O-])c1c(Sc2ccc(Cl)cc2)ccc2nsnc12`: the inhibition is 37.2% (inactive). `CN(C)c1cc(NC(=O)Nc2ccccc2)c2ccccc2n1`: the inhibition was 43.7% (inactive). The same measure for `O=C(c1cnn(-c2ccc(Cl)cc2)c1C(F)(F)F)N1CCN(c2ncnc3ccsc23)CC1`: 79%; for `COc1ccc(OS(=O)(=O)c2sc(Br)cc2Br)cc1`: 36.2% (inactive). Regarding `CCN(CC)c1ccc(/C=C/c2ccc([N+](=O)[O-])cc2C#N)cc1`, the inhibition was 49.6% (inactive). The same measure for `CCOC(=O)C1CCN(Cc2cccc(NC(=O)c3ccco3)c2)CC1`: 35.5% (inactive); for `CCOC(=O)c1cc(C(=O)OC)c(C)nc1N1CCC(NC2CCCCC2O)CC1` (stereo unspecified): 95.2%; for `N#Cc1c(S/C=C(\O)c2cc3ccccc3o2)nc2c(c1C(F)(F)F)CCCC2`: 15.3% (inactive).

As to `Clc1ccc2c(Nc3ccc4c(c3)OCO4)ccnc2c1`, the inhibition is 30% (inactive). For `S=C(NNc1c(Cl)cncc1Cl)Nc1ccc(Cl)cc1Cl`, the inhibition is 51.8% (inactive). The same measure for `O=C(Nc1ccc(Cl)cc1Cl)c1cc([N+](=O)[O-])cc2c1-c1ccc([N+](=O)[O-])cc1C2=O`: 59.2%; for `O=[N+]([O-])c1ccc(C2=NN(c3ccccc3)C(c3ccco3)C2)cc1` (stereo unspecified): 82.9%; for `CCOC(=O)c1ccc(N2CC3CCCCN3C2c2cccc(OC)c2O)cc1` (stereo unspecified): 49% (inactive). For `O=C(O)C(F)(F)C(F)(F)C(=O)NCc1cccc(Cl)c1`, the inhibition is 0.14% (inactive). Regarding `CCOC(=O)c1cn[nH]c1NC(=S)Nc1cccc(C(F)(F)F)c1`, the inhibition was 46.6% (inactive).
